From US9012443B2 (Amgen Inc., priority 2011, dated 2015)

Columns and labels:
[1] = target: T1, Nav 1.7 (Homo sapiens (Human), UniProt Q15858); assay: Nav 1.7 IWQ in vitro assay (IonWorks Quattro population patch-clamp); format: cell-based; settings: for IC50: 293 cells stably transfected with Nav 1.7, second part of table, read-out: Nav1.7 IWQ IC50 IP
Procedure, shortened: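 HEK293 cells stably expressing Nav 1.7, recorded by automated population patch-clamp with a train of depolarizations producing increasing inactivation. Single compound concentration added during 3–8 min unclamped period, then same protocol repeated. Leak-corrected current at 26th pulse to −20 mV gave percent block (duplicate); IC50 fitted from concentration–block curves.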

[2] = target: T1, Nav 1.7; assay: Nav 1.7 in vitro PX assay (PatchXpress whole cell voltage clamp); format: cell-based; settings: 293 cells, human Nav1.7, partially inactivated state; read-out: Nav1.7 PX IC50 IP
Procedure, shortened: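 HEK293 cells stably expressing human Nav1.7, whole-cell voltage clamp on PatchXpress, held at potential giving 20–50% inactivation; current elicited by 20 msec pulse to −10 mV.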

T1 sequence (Q15858 whole entry): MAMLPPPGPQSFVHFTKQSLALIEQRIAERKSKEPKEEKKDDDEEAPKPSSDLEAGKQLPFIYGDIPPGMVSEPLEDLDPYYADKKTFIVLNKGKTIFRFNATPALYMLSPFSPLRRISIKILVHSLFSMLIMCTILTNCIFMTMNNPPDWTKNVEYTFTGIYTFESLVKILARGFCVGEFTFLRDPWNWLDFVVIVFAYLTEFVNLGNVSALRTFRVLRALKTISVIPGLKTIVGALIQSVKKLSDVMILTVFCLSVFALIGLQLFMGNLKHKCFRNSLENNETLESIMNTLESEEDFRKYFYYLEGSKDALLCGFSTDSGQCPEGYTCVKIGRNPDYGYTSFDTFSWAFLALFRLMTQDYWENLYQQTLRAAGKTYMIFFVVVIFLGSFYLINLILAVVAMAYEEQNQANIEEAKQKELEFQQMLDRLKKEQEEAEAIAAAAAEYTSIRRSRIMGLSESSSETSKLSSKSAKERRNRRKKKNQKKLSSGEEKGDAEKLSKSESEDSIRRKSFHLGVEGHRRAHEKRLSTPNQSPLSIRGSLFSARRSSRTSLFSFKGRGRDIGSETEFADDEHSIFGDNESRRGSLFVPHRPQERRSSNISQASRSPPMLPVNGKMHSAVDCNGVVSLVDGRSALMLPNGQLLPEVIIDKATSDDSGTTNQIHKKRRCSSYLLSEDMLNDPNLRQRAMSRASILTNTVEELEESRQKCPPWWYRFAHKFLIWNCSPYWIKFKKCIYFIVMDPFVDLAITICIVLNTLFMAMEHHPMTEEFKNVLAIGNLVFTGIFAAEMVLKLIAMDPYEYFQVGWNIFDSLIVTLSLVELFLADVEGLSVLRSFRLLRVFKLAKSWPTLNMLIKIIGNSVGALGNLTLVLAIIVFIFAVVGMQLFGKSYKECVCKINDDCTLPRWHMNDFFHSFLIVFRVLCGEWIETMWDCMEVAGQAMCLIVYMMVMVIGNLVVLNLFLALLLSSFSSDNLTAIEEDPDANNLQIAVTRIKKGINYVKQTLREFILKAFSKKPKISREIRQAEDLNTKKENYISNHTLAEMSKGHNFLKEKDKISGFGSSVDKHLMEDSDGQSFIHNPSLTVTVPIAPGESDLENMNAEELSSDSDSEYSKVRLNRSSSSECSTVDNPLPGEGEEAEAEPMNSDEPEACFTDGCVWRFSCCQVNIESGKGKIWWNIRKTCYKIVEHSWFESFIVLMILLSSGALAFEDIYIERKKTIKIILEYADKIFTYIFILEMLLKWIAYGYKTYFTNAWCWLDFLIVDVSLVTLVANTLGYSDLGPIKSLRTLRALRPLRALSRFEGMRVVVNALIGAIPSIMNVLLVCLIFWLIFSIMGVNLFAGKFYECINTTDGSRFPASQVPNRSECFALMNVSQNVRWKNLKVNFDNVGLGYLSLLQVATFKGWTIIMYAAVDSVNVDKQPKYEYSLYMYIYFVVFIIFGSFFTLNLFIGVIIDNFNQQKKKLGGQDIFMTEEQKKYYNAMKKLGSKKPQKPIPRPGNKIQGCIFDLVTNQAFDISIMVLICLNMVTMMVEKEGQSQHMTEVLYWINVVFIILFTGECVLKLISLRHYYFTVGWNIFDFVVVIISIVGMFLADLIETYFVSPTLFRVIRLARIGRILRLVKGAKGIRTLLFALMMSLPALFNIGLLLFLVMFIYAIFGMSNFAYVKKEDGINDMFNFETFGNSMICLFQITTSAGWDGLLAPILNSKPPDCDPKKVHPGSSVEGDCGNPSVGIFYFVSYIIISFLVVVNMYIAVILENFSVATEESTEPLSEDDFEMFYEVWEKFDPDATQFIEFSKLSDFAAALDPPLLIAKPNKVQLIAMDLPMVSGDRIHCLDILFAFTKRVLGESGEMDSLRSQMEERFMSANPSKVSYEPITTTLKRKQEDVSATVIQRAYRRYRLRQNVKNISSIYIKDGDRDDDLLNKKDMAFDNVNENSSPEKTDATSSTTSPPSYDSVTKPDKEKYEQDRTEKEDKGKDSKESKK

| SMILES | IC50 [1] [nM] | IC50 [2] [nM] | Nav1.7 Single Point Data IWQ (at […]) (%) ([1]; at […]) |
| --- | --- | --- | --- |
| O=S(=O)(Nc1nccs1)c1ccc2c(N3CCCC3c3ccccc3)nccc2c1 (centres unmarked) [Example 237, 1-(2-PHENYLPYRROLIDIN-1-YL)-N-(THIAZOL-2-YL)ISOQUINOLINE-6-SULFONAMIDE] | 740 | 1230 |  |
| COc1cc(C(F)(F)F)ccc1-c1nccc2cc(S(=O)(=O)Nc3cccnn3)ccc12 [Example 185, 1-(2-METHOXY-4-(TRIFLUOROMETHYL)PHENYL)-N-(PYRIDAZIN-3-YL)ISOQUINOLINE-6-SULFONAMIDE] | 270 | 2700 |  |
| O=S(=O)(Nc1ccncn1)c1ccc2c(-c3ccc(C(F)(F)F)cc3-n3ccnc3)cccc2c1 [Example 121] | 30 | 864 |  |
| COc1cc(C(F)(F)F)ccc1-c1nncc2cc(S(=O)(=O)Nc3nccs3)ccc12 [Example 253, 1-(2-METHOXY-4-(TRIFLUOROMETHYL)PHENYL)-N-(THIAZOL-2-YL)PHTHALAZINE-6-SULFONAMIDE] | 20 | 340 |  |
| N#Cc1cccc(COc2nccc3cc(S(=O)(=O)Nc4ccncn4)ccc23)c1 [Example 137, 1-((3-CYANOBENZYL)OXY)-N-(PYRIMIDIN-4-YL)ISOQUINOLINE-6-SULFONAMIDE] | 3910 | > 30000 |  |
| COc1cc(Cl)c(Cl)cc1-c1nccc2cc(S(=O)(=O)Nc3ccncn3)ccc12 [Example 161, 1-(4,5-DICHLORO-2-METHOXYPHENYL)-N-(PYRIMIDIN-4-YL)ISOQUINOLINE-6-SULFONAMIDE] | 20 | 393 |  |
| COc1cc(C(F)(F)F)ccc1-c1ncnc2cc(S(=O)(=O)Nc3ncc(F)s3)ccc12 [Example 263, N-(5-FLUOROTHIAZOL-2-YL)-4-(2-METHOXY-4-(TRIFLUOROMETHYL)PHENYL)QUINAZOLINE-7-SULFONAMIDE] | 10 | 280 |  |
| COc1cc(F)ccc1-c1nncc2cc(S(=O)(=O)Nc3nccs3)ccc12 [Example 250, 1-(4-FLUORO-2-METHOXYPHENYL)-N-(THIAZOL-2-YL)PHTHALAZINE-6-SULFONAMIDE] | 50 | 1150 |  |
| COc1cc(NS(=O)(=O)c2ccc3c(-c4ccc(C(F)(F)F)cc4OC)nccc3c2)ncn1 [Example 181, 1-(2-METHOXY-4-(TRIFLUOROMETHYL)PHENYL)-N-(6-METHOXYPYRIMIDIN-4-YL)ISOQUINOLINE-6-SULFONAMIDE] | 110 | 1560 |  |
| O=S(=O)(Nc1nccs1)c1ccc2c(N3CCC[C@@H]3c3ccccc3)nccc2c1 [Example 238, (R)-1-(2-phenylpyrrolidin-1-yl)-N-(thiazol-2-yl)isoquinoline-6-sulfonamide] | 140 | 770 |  |
| COc1cc(Cl)ccc1-c1ncnc2cc(S(=O)(=O)Nc3nccs3)ccc12 [Example 267, 4-(4-CHLORO-2-METHOXYPHENYL)-N-(THIAZOL-2-YL)QUINAZOLINE-7-SULFONAMIDE] | 10 | 300 |  |
| COc1cc(C(F)(F)F)ccc1-c1ncc(C#N)c2cc(S(=O)(=O)Nc3ccncn3)ccc12 [Example 242, 4-CYANO-1-(2-METHOXY-4-(TRIFLUOROMETHYL)PHENYL)-N-(PYRIMIDIN-4-YL)ISOQUINOLINE-6-SULFONAMIDE] | 2500 | 3890 |  |
| O=S(=O)(Nc1nccs1)c1ccc2c(-c3ccc(C(F)(F)F)cc3Cl)ccnc2c1 [Example 278, 4-(2-CHLORO-4-(TRIFLUOROMETHYL)PHENYL)-N-(THIAZOL-2-YL)QUINOLINE-7-SULFONAMIDE] | 220 | 2020 |  |
| O=S(=O)(Nc1ccncn1)c1ccc2c(-c3ccc(C(F)(F)F)cc3C3(F)CNC3)cccc2c1 [Example 118] | 30 | 652 |  |
| COc1ccccc1-c1ccnc2cc(S(=O)(=O)Nc3nccs3)ccc12 [Example 277, 4-(2-METHOXYPHENYL)-N-(THIAZOL-2-YL)QUINOLINE-7-SULFONAMIDE] | 70 | 340 |  |
| COc1ncc(Cl)cc1-c1nccc2cc(S(=O)(=O)Nc3ccncn3)ccc12 [Example 168, 1-(5-CHLORO-2-METHOXYPYRIDIN-3-YL)-N-(PYRIMIDIN-4-YL)ISOQUINOLINE-6-SULFONAMIDE] | 30 | 1600 |  |
| O=S(=O)(Nc1nccs1)c1ccc2c([C@H]3CCCN3C3CCOCC3)cccc2c1 [Example 104, (R)-5-(1-(TETRAHYDRO-2H-PYRAN-4-YL)PYRROLIDIN-2-YL)-N-(THIAZOL-2-YL)NAPHTHALENE-2-SULFONAMIDE COMPOUND WITH DIETHYLAMINE (1:1)] | 80 | 1990 |  |
| COc1cc(C(F)(F)F)ccc1-c1ncnc2cc(S(=O)(=O)Nc3ccncn3)ccc12 [Example 262, 4-(2-METHOXY-4-(TRIFLUOROMETHYL)PHENYL)-N-(PYRIMIDIN-4-YL)QUINAZOLINE-7-SULFONAMIDE] | 40 | 960 |  |
| COc1cc(Cl)ccc1-c1ncc(C#N)c2cc(S(=O)(=O)Nc3nccs3)ccc12 [Example 241, 1-(4-chloro-2-methoxyphenyl)-4-cyano-N-(thiazol-2-yl)isoquinoline-6-sulfonamide] | 240 | 480 |  |
| COC(=O)c1cccc2cc(S(=O)(=O)Nc3ncns3)ccc12 [Example 318, METHYL 6-(N-(1,2,4-THIADIAZOL-5-YL)SULFAMOYL)-1-NAPHTHOATE] | > 10000 | 37400 | 32 |
| COc1cc(C(F)(F)F)ccc1-c1nccc2cc(S(=O)(=O)Nc3ncc(C#N)s3)ccc12 [Example 197, N-(5-CYANOTHIAZOL-2-YL)-1-(2-METHOXY-4-(TRIFLUOROMETHYL)PHENYL)ISOQUINOLINE-6-SULFONAMIDE] | 2930 | 3060 |  |
| COc1cc(C(F)(F)F)ccc1-c1ncnc2cc(S(=O)(=O)Nc3nncs3)ccc12 [Example 268, 4-(2-METHOXY-4-(TRIFLUOROMETHYL)PHENYL)-N-(1,3,4-THIADIAZOL-2-YL)QUINAZOLINE-7-SULFONAMIDE] | 1100 | 2520 |  |
| O=S(=O)(Nc1nccs1)c1ccc2c(-c3ccc(C(F)(F)F)cc3CC(O)CO)nccc2c1 (centres unmarked) [Example 230, 1-(2-(2,3-DIHYDROXYPROPYL)-4-(TRIFLUOROMETHYL)PHENYL)-N-(THIAZOL-2-YL)ISOQUINOLINE-6-SULFONAMIDE 2,2,2-TRIFLUOROACETATE] | 30 | 590 |  |
| COc1cc(F)ccc1-c1ncc(F)c2cc(S(=O)(=O)Nc3nccs3)ccc12 [Example 213, 4-FLUORO-1-(4-FLUORO-2-METHOXYPHENYL)-N-(THIAZOL-2-YL)ISOQUINOLINE-6-SULFONAMIDE] | 10 | 360 |  |
| O=S(=O)(Nc1ccncn1)c1ccc2c(-c3ccc(C(F)(F)F)cc3C3=CCNC3)cccc2c1 [Example 119] | 20 | 179 |  |
| O=S(=O)(Nc1ncc(F)s1)c1ccc2c(-c3ccc(C(F)(F)F)cc3-n3ccnc3)cccc2c1 [Example 112] | 100 | 459 |  |
| O=S(=O)(Nc1nccs1)c1ccc2c(-c3ccc(C(F)(F)F)cc3Br)nccc2c1 [Example 235, 1-(2-BROMO-4-(TRIFLUOROMETHYL)PHENYL)-N-(THIAZOL-2-YL)ISOQUINOLINE-6-SULFONAMIDE] | 50 | 150 |  |
| Cn1ccnc1-c1cc(C(F)(F)F)ccc1-c1cccc2cc(S(=O)(=O)Nc3ccncn3)ccc12 [Example 124] | 60 | 502 |  |
| O=S(=O)(Nc1ncc(F)s1)c1ccc2c(-c3ccc(C(F)(F)F)cc3C3CCNCC3)cccc2c1 [Example 113] | 80 | 118 |  |
